Measured values from article PMC10214526, “Semisynthetic LC3 Probes for Autophagy Pathways Reveal a Noncanonical LC3 Interacting Region Motif Crucial for the Enzymatic Activity of Human ATG3” (ACS Central Science, 2023).

Assays:
[1] = target: T1, ATG3 C1–GABARAP (probe 2) complex formation (Homo sapiens, UniProt O95166); assay: Competition assay: LIR^ATG3 peptides vs cross-linking of GABARAP methyl fumarate probe 2 with ATG3 C1; assay type: biochemical; settings: probe 2 (15 μM) with ATG3 C1 in the presence of increasing amounts of peptide
T1 construct: SUMO2 (N, cleaved yes); Mxe GyrA intein-His6 (C, cleaved yes); made in house; host or cells: E. coli Rosetta-CodonPlus (DE3)-RIL
T1 sequence (O95166 1-115 limits assumed, one chain of several): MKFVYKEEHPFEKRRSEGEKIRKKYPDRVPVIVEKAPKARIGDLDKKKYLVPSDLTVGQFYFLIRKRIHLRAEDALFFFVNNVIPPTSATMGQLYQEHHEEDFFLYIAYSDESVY
Procedure: To exclude an effect of LIR deletion on protein activity we performed a competition experiment with chemically prepared LIR (L94-H112) peptide 5. Probe 2 (15 μM) was incubated with ATG3 C1 in the presence of increasing amounts of 5. […] We also postulated that cyclization of the LIR peptide would recapitulate its β-sheet conformation and lead to tighter binding than the linear peptide due to preorganization.[37] […] Cyclic peptide 6 was prepared by solid-phase peptide synthesis followed by cyclization using selective cysteine alkylation (Figure S11).[39],[40] […] Additionally, we confirmed the interaction of LIR^ATG3 peptides with GABARAP and LC3A by fluorescence polarization (Figure 2e–g). LIR^ATG3-derived peptides bind to both LC3A and GABARAP. As indicated by the competition experiments, cyclic peptides bound markedly tighter to GABARAP and LC3A than the linear peptides. […]
Figure 2 Characterization of LIR^ATG3. a. […] Quantification of competition assays shown in b and c. The amount of GABARAP–ATG3 C1 complex was quantified by gel-densitometry and normalized to the reaction without peptide for each gel. […] Fluorescence polarization binding-data of fluorescein-modified LIR^ATG3 peptide binding to GABARAP. […] Fluorescence polarization data of fluorescein-modified LIR^ATG3 peptide binding to LC3A. […]
Farnung et al. Supplementary Information and monitored using LC-MS analysis. […]

[2] = Circular dichroism spectroscopy of LIR^ATG3 peptides; assay type: physicochemical; settings: 700 μM peptide, 20 mM potassium phosphate pH 7.2, 20 °C, 180-300 nm, 5x averaged
From the text: Farnung et al. Supplementary Information […]
H Capping with O H Resin cleavage O H Cyclization O […]
acid anhydride deprotection
Figure S11. Preparation of cyclized LIRATG3 peptide 6. a, Synthetic scheme describing the preparation of 6.
A cysteine residue is introduced at the C-terminus of the LIR motif. Following standard Fmoc-SPPS the LIR peptide is capped at its N-terminus with α-chloroacetic acid anhydride. Following resin cleavage, the peptide is cyclized by cysteine alkylation. b, Analytical RP-HPLC chromatograms showing the cyclization of the LIR […]
peptide to provide 6. […] Middle chromatogram
Figure S12. CD spectra of linear and cyclic LIR ATG3 peptides 5 and 6. CD spectra of LIRATG3 peptides 5 and 6 were recorded in 20 mM KPhos buffer (pH 7.2) at a concentration of 700 μM. Cyclized LIRATG3 peptide 6 […]
nm and an increase in band intensity at 215 nm.
Plasmid Supplier Identiﬁer Dilution
Anti-ATG5 Cell-Signalling #D5F5U 1:1,000
Anti-β-Actin Thermo-Fisher #BA3R 1:2,000
Table S2 Antibodies used in this study.
2.9. Circular dichroism spectroscopy
CD spectra were recorded on a JASCO J-1500 CD spectrometer in a 0.1 cm cuvette. Samples were measured in potassium phosphate (20 mM, pH 7.2) at 20 °C. Data were recorded between 180-300 nm with a measuring speed of 20 nm/min. Measurements were repeated (5x) and averaged.
Background spectrum was recorded and subtracted from measured spectra. […]

With “Ac-LEAIIEEDDGDGGWVDTYHAGGGK-OH [compound 5]” the “Block of ATG3 modification” value [1] was “blocked ATG3 modification in a concentration-dependent manner” and the “Secondary structure by CD” value [2] was “not structured in solution”.
